In PubChem BioAssay (NCI) one finds TGI and GI50 data, which are given here for eleven compounds.

The structures appear in SMILES notation.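 Briefly, cells in 96-well plates were exposed to five compound concentrations for 48 h, and endpoints were estimated by linear interpolation. GI50 = concentration required for 50% inhibition of growth. At the TGI there is no net growth.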

Test systems include K-562 leukemia; OVCAR-5 ovarian; MCF7 breast; SK-MEL-28 melanoma; SF-295 CNS; OVCAR-4 ovarian; HOP-62 NSCLC; NCI/ADR-RES ovarian; UO-31 renal; SK-MEL-5 melanoma.
Test in all cases: NCI tumour cell line growth inhibition, 48 h

Consider `N/C(CC(=O)Nc1cc(C(F)(F)F)ccc1Cl)=N\O`, for which the TGI in the experiment with K-562 leukemia, in the experiment on OVCAR-5 ovarian, in the experiment on MCF7 breast, in the experiment with SK-MEL-28 melanoma, in the experiment with SF-295 CNS and in the experiment with OVCAR-4 ovarian was more than 100 µM throughout. For the same compound, the TGI in the experiment on HOP-62 NSCLC, with NCI/ADR-RES ovarian, in the experiment on UO-31 renal and with SK-MEL-5 melanoma was more than 100 µM each time.

With `CC(C)(C)OC(=O)NC(Cc1ccccc1)C(=O)OCN1C(=O)C2C3C=CC(C2C1=O)C1C2C(=O)N(COC(=O)C(Cc4ccccc4)NC(=O)OC(C)(C)C)C(=O)C2C31` (stereo not given), the TGI in the experiment on K-562 leukemia, with OVCAR-5 ovarian, in the experiment with MCF7 breast, in the experiment with SK-MEL-28 melanoma, in the experiment on SF-295 CNS and in the experiment with OVCAR-4 ovarian was more than 100 µM throughout. In addition, the TGI in the experiment with HOP-62 NSCLC was more than 100 µM; in the experiment on NCI/ADR-RES ovarian, more than 100 µM; in the experiment with UO-31 renal it was more than 87.9 µM; with SK-MEL-5 melanoma it was more than 74.8 µM.

In the case of `CCN1CCN(c2nc(NCCCNc3ccnc4cc(Cl)ccc34)c3ccccc3n2)CC1`, the GI50 in the experiment with K-562 leukemia was 2.23 µM; with OVCAR-5 ovarian, 3 µM; with MCF7 breast, 1.93 µM; in the experiment with SK-MEL-28 melanoma, 1.91 µM; with SF-295 CNS, 1.66 µM; in the experiment with OVCAR-4 ovarian, 2.12 µM. Besides, the GI50 with HOP-62 NSCLC was 1.79 µM; in the experiment on NCI/ADR-RES ovarian, 15.2 µM; in the experiment with UO-31 renal it was 1.49 µM; in the experiment with SK-MEL-5 melanoma it was 1.74 µM. For the same compound, the TGI is 7.14 µM with K-562 leukemia; 11 µM with OVCAR-5 ovarian; 11.1 µM in the experiment with MCF7 breast; 3.9 µM with SK-MEL-28 melanoma; 3.37 µM in the experiment on SF-295 CNS; 9.57 µM with OVCAR-4 ovarian. In addition, the TGI came out at 4.91 µM in the experiment with HOP-62 NSCLC, 32.3 µM in the experiment on NCI/ADR-RES ovarian, 2.97 µM in the experiment on UO-31 renal and 3.11 µM with SK-MEL-5 melanoma.

Regarding `CC(C)(C)OC(=O)n1cc(CNC(=S)Nc2ccccc2)c2ccccc21`, the GI50 in the experiment on K-562 leukemia was 8.73 µM; in the experiment with OVCAR-5 ovarian, 16.3 µM; in the experiment on MCF7 breast it was 9.02 µM; with SK-MEL-28 melanoma, 27.4 µM; in the experiment with SF-295 CNS it was 6.04 µM; in the experiment on OVCAR-4 ovarian, 49.4 µM. In addition, the GI50 in the experiment on HOP-62 NSCLC is 17.2 µM; in the experiment with NCI/ADR-RES ovarian, 10.8 µM; in the experiment on UO-31 renal, 26.5 µM; in the experiment on SK-MEL-5 melanoma it was 4.51 µM. The TGI with K-562 leukemia is 70.1 µM; in the experiment with OVCAR-5 ovarian it was 37.6 µM; with MCF7 breast it was 48 µM; in the experiment with SK-MEL-28 melanoma, 95.3 µM; in the experiment with SF-295 CNS it was 23.4 µM; with OVCAR-4 ovarian, more than 100 µM. In addition, the TGI in the experiment with HOP-62 NSCLC is 38 µM; with NCI/ADR-RES ovarian it was 22.7 µM; with UO-31 renal, more than 100 µM; with SK-MEL-5 melanoma, 16.6 µM.

`O=C(CSc1nc2ccc([N+](=O)[O-])cc2[nH]1)Nc1ccc(F)c(Cl)c1`: the GI50 with K-562 leukemia was 2.44 µM; in the experiment on OVCAR-5 ovarian, 2.65 µM; in the experiment with MCF7 breast, 2.03 µM; in the experiment on SK-MEL-28 melanoma, 2.68 µM; with SF-295 CNS it was 1.81 µM; with OVCAR-4 ovarian, 1.99 µM. The GI50 in the experiment with HOP-62 NSCLC is 2.46 µM; with NCI/ADR-RES ovarian it was 2.31 µM; in the experiment with UO-31 renal, 1.69 µM; in the experiment with SK-MEL-5 melanoma it was 1.22 µM. Also, the TGI was more than 42.3 µM with K-562 leukemia; 11.5 µM in the experiment on OVCAR-5 ovarian; 9.4 µM in the experiment with MCF7 breast; 12.9 µM in the experiment on SK-MEL-28 melanoma; 5.5 µM with SF-295 CNS; 17.8 µM in the experiment on OVCAR-4 ovarian. Further, the TGI in the experiment with HOP-62 NSCLC amounted to 9.89 µM; with NCI/ADR-RES ovarian it was 8.23 µM; with UO-31 renal, 7.8 µM; in the experiment with SK-MEL-5 melanoma, 3.03 µM.

As for `C=CC(=O)N[C@H]1C=C(C)c2c(-c3cnc4ccccc4c3)c3c(N)ncnc3n2C1`, the GI50 is 24.8 µM with K-562 leukemia; 21.2 µM in the experiment on OVCAR-5 ovarian; 21.1 µM in the experiment on MCF7 breast; 19.3 µM with SK-MEL-28 melanoma; 22.9 µM in the experiment on SF-295 CNS; 13.5 µM in the experiment with OVCAR-4 ovarian. Besides, the GI50 with HOP-62 NSCLC is 20.9 µM; in the experiment with NCI/ADR-RES ovarian, 21.3 µM; with UO-31 renal it was 0.61 µM; in the experiment on SK-MEL-5 melanoma it was 12.5 µM. Besides, the TGI with K-562 leukemia was more than 100 µM; with OVCAR-5 ovarian, 93.3 µM; in the experiment on MCF7 breast, more than 100 µM; in the experiment on SK-MEL-28 melanoma it was 68.6 µM; in the experiment with SF-295 CNS it was 68 µM; with OVCAR-4 ovarian it was more than 100 µM. Moreover, the TGI in the experiment with HOP-62 NSCLC is 66.7 µM; in the experiment on NCI/ADR-RES ovarian, more than 87.9 µM; in the experiment on UO-31 renal, 11.5 µM; in the experiment with SK-MEL-5 melanoma, 25.2 µM.

Consider `Cc1nn(-c2ccc(F)cc2)c2ncnc(Nc3ccc(NC(=O)Nc4ccc(Cl)c(C(F)(F)F)c4)cc3)c12`, for which the GI50 in the experiment with K-562 leukemia is 1.75 µM; in the experiment on OVCAR-5 ovarian, 2.81 µM; in the experiment with MCF7 breast, 2.11 µM; in the experiment with SK-MEL-28 melanoma, 2.18 µM; in the experiment with SF-295 CNS, 2.25 µM; in the experiment with OVCAR-4 ovarian, 2.46 µM. The GI50 is 2.25 µM in the experiment with HOP-62 NSCLC, 2.43 µM in the experiment on NCI/ADR-RES ovarian, 1.65 µM in the experiment with UO-31 renal and 3.39 µM with SK-MEL-5 melanoma. The TGI was more than 100 µM in the experiment with K-562 leukemia; 11.9 µM in the experiment on OVCAR-5 ovarian; 6.67 µM in the experiment on MCF7 breast; 5.68 µM with SK-MEL-28 melanoma; 6.17 µM with SF-295 CNS; 7.13 µM with OVCAR-4 ovarian. The TGI amounted to 6.83 µM in the experiment with HOP-62 NSCLC, 10.9 µM in the experiment with NCI/ADR-RES ovarian, 4.17 µM with UO-31 renal and 12.1 µM in the experiment with SK-MEL-5 melanoma.

Take `CN1CCN(CC#Cc2cccc(C(=O)c3cnn(-c4ccc(F)cc4)c3N)c2)CC1`: the GI50 with K-562 leukemia, in the experiment with OVCAR-5 ovarian, in the experiment on MCF7 breast, with SK-MEL-28 melanoma, with SF-295 CNS and with OVCAR-4 ovarian was more than 25 µM each time. The GI50 with HOP-62 NSCLC, in the experiment on NCI/ADR-RES ovarian, with UO-31 renal and with SK-MEL-5 melanoma was more than 25 µM in each case. Besides, the TGI with K-562 leukemia, with OVCAR-5 ovarian, with MCF7 breast, in the experiment with SK-MEL-28 melanoma, with SF-295 CNS and with OVCAR-4 ovarian was more than 25 µM each time. In addition, the TGI in the experiment on HOP-62 NSCLC, with NCI/ADR-RES ovarian, in the experiment on UO-31 renal and with SK-MEL-5 melanoma was more than 25 µM each time.

Consider `CCCCCCCCCCCCCC(=S)NCCCC[C@H](NC(=O)OCc1ccccc1)C(=O)Nc1ccccc1`, for which the GI50 in the experiment with K-562 leukemia was 4.21 µM; in the experiment on OVCAR-5 ovarian it was 10.3 µM; with MCF7 breast it was 4.4 µM; with SK-MEL-28 melanoma, 7.99 µM; in the experiment on SF-295 CNS, 3.4 µM; with OVCAR-4 ovarian it was 3.9 µM. In addition, the GI50 is 16 µM in the experiment with HOP-62 NSCLC, 5.11 µM in the experiment on NCI/ADR-RES ovarian, 2.39 µM in the experiment with UO-31 renal and 8.39 µM in the experiment on SK-MEL-5 melanoma. The TGI in the experiment on K-562 leukemia is more than 100 µM; with OVCAR-5 ovarian, more than 100 µM; in the experiment with MCF7 breast, more than 100 µM; with SK-MEL-28 melanoma, more than 100 µM; in the experiment on SF-295 CNS, 72.1 µM; in the experiment on OVCAR-4 ovarian, more than 100 µM. The TGI with HOP-62 NSCLC, in the experiment on NCI/ADR-RES ovarian, in the experiment with UO-31 renal and in the experiment on SK-MEL-5 melanoma was more than 100 µM throughout.

As to `COc1ccc(NC(=O)Nc2n[nH]c3ccccc23)cc1`, the GI50 with K-562 leukemia, in the experiment with OVCAR-5 ovarian, in the experiment with MCF7 breast, in the experiment on SK-MEL-28 melanoma, with SF-295 CNS and with OVCAR-4 ovarian was more than 100 µM in each case. Further, the GI50 in the experiment with HOP-62 NSCLC, with NCI/ADR-RES ovarian, with UO-31 renal and with SK-MEL-5 melanoma was more than 100 µM each time. For the same compound, the TGI in the experiment on K-562 leukemia, in the experiment on OVCAR-5 ovarian, in the experiment with MCF7 breast, with SK-MEL-28 melanoma, in the experiment on SF-295 CNS and in the experiment on OVCAR-4 ovarian was more than 100 µM in each case. The TGI in the experiment on HOP-62 NSCLC, in the experiment on NCI/ADR-RES ovarian, in the experiment with UO-31 renal and in the experiment with SK-MEL-5 melanoma was more than 100 µM each time.

With `O=C(c1cccs1)c1c(C(F)(F)F)n([O-])c2ccccc2[n+]1=O`, the GI50 with K-562 leukemia was 1.64 µM; with OVCAR-5 ovarian, 1.04 µM; in the experiment on MCF7 breast it was 0.549 µM; in the experiment on SK-MEL-28 melanoma, 5.59 µM; in the experiment with SF-295 CNS, 0.941 µM; in the experiment on OVCAR-4 ovarian, 0.941 µM. Moreover, the GI50 in the experiment with HOP-62 NSCLC is 0.376 µM; in the experiment on NCI/ADR-RES ovarian, 0.677 µM; in the experiment with UO-31 renal, 0.0775 µM; in the experiment on SK-MEL-5 melanoma it was 0.686 µM. Besides, the TGI with K-562 leukemia stood at 8.77 µM; with OVCAR-5 ovarian, 2.49 µM; in the experiment on MCF7 breast, 1.95 µM; in the experiment with SK-MEL-28 melanoma it was 14.5 µM; in the experiment with SF-295 CNS it was 2.43 µM; in the experiment on OVCAR-4 ovarian, 3.09 µM. The TGI in the experiment with HOP-62 NSCLC was determined as 1.24 µM; in the experiment on NCI/ADR-RES ovarian, 1.94 µM; in the experiment with UO-31 renal, 6.08 µM; in the experiment with SK-MEL-5 melanoma, 1.33 µM.
